According to patent US20140288040A1, “SUBSTITUTED BENZYLAMINE COMPOUNDS, THEIR USE IN MEDICINE, AND IN PARTICULAR THE TREATMENT OF HEPATITIS C VIRUS (HCV) INFECTION” (ASTEX THERAPEUTICS LIMITED, priority 2011, published 2014):
Counter-ions that a name gives are not always drawn. Like-named read-outs stand apart in the source and are kept apart here.

Assays:
[1] = biological target: T1, HCV NS3 protease (full length NS34a) (Hepatitis C virus genotype 1b, UniProt P26663); assay: HCV NS3 protease assay (FRET, full length NS34a); format: biochemical
T1 construct: The protease activity of the full length NS34a was measured using a FRET-based assay; made in house
In short: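 FRET readout over 30 minutes at room temperature, with IC50 fitted to initial rates from replicate curves. Enzyme was full-length NS34a; substrate a peptide from the NS4AB cleavage site labelled with QXL520 and 5-FAMsp; buffer 50 mM Tris pH8 containing 20 mM DTT, 1% CHAPS, 10% glycerol and 5% DMSO.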

[2] = tested on: HCV subgenomic replicon in Huh-7 cells; assay: Replicon assay, EC50 luciferase readout; format: cell-based, hepatitis C virus (HCV)
Experimental: The activities of compounds of the invention against HCV in a cellular environment were analysed using a replicon assay as described below.
Thus, Huh-7 cells persistently infected with an HCV-RNA construct (Bartenschlager, R. Hepatitis C replicons: potential role for drug development. Nature Rev. Drug Discov. 1, 911-916 (2002)) comprising: 5′ and 3′ non-translated regions (NTR); the non-structural genes NS3 to NS5b; as well as the G418 drug resistance gene, neomycin, (for selection of cells carrying HCV replicon RNA) fused to the firefly Luciferase reporter gene (pFK13889luc-ubi-neoNS3-3′ET), were used to determine the cell based antiviral activity of compounds using luciferase activity as an indirect readout of HCV RNA load. In this assay […] huh-7 cells persistently infected with the HCV subgenomic replicon construct above were platedwell in a 96 well tissue culture plate. The cells were allowed to attach overnight in DMEM medium supplemented with 10% FBS 1% NEAA, and 250 μgml gentamicin. The following day the medium was replaced with 200 μlwell of fresh medium as described above lacking gentamicin. […] Plates were then incubated at 37° C. in an atmosphere of 5% CO2 and air for 72 h. […] The plate was then read at 535 nm (excitation) and 590 nm (emission) on a SpectraMax Gemini reader (Molecular Devices) to determine the number of viable cells by measuring the conversion of rezasurin (Alamar blue) to resorufin in response to mitochondrial activity. In order to determine the antiviral effect of these compounds EC50 values were determined by measuring the luciferase activity of the cells. Alamar blue solution was removed from the wells and replaced with 100 μlwell of medium along with 100 μlwell of Bright-Glo reagent and incubated at room temperature for 5 minutes before transferring 100 μlwell to a white bottom 96 well plate to read in a luminometer as described in the Bright-Glo Luciferase Assay System protocol (promega).

[3] = protease activity of full length NS34a, FRET peptide substrate, read-out: Activity IC50
[4] = Hepatitis C virus, Huh-7, 72 h, Huh-7 replicon cells, 72 h, single value, or second value of a pair x:y, read-out: Activity EC50 (μM) (EC50 luciferase readout)
[5] = IC50 values of 10-150 μM against the protease activity of the full length NS34a, or at least 40% inhibition of protease activity at a concentration of 100 μM
[6] = Hepatitis C virus, Huh-7, 72 h, read-out: Activity EC50 (μM) (EC50 luciferase readout), Huh-7 replicon cells, 72 h, single value, or second value of a pair x:y

T1 sequence (P26663 1658-1711): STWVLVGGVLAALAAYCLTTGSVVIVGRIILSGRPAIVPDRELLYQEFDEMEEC
T1 sequence (P26663 1027-1657): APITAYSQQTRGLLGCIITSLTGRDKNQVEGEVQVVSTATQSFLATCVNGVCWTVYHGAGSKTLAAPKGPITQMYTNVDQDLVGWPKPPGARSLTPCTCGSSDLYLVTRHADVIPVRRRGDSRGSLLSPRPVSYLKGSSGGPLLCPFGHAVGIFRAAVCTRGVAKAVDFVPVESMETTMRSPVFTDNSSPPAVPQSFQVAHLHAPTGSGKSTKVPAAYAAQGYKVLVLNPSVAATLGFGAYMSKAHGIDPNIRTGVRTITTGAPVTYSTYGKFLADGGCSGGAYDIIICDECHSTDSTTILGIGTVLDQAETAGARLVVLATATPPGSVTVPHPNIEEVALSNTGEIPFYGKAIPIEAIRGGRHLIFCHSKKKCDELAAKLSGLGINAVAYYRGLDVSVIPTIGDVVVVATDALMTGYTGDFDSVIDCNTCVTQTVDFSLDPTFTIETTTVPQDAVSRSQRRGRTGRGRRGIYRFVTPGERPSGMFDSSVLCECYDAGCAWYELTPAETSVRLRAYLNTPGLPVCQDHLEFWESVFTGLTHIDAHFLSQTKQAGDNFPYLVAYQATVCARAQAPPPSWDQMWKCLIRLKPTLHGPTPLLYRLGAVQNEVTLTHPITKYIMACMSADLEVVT

Row | SMILES | IC50 [1, 3] | EC50 [2, 4] | also measured
1 | CCC(NCC(C)O)c1ccc(F)c(Oc2ccccc2)c1F (mixture of isomers) [Example 53, 1-[1-(2,4-Difluoro-3-phenoxy-phenyl)-propylamino]-propan-2-ol.hydrochloride] | 5 µM | 26 µM | –
2 | N[C@H](c1ccc(F)c(Oc2ccccc2)c1F)[C@H]1CCOC1 (relative stereo) [Example 61, C-(2,4-Difluoro-3-phenoxy-phenyl)-C-(tetrahydrofuran-3-yl)-methylamine.hydrochloride] | – | > 30 µM | IC50 [1, 5]: 10 to 150 µM
3 | N[C@@H](c1ccc(F)c(Oc2ccccc2)c1F)[C@H]1CCOC1 (relative stereo) [Example 62, C-(2,4-Difluoro-3-phenoxy-phenyl)—C-(tetrahydro-furan-3-yl)-methylamine.hydrochloride] | 7.2 µM | > 30 µM | –
4 | CC(CO)NC(c1ccc(F)c(Oc2ccccc2)c1F)C1CCNCC1 (single isomer, unassigned) [Example 75, 2-{[(2,4-Difluoro-3-phenoxy-phenyl)-piperidin-4-yl-methyl]-amino}-propan-1-ol.dihydrochloride] | 3.3 µM | 4.8 µM | –
5 | CC(CO)NC(c1ccc(F)c(Oc2ccccc2)c1F)C1CCNCC1 (single isomer, unassigned) [Example 76, 2-{[(2,4-Difluoro-3-phenoxy-phenyl)-piperidin-4-yl-methyl]-amino}-propan-1-ol.dihydrochloride] | 2.9 µM | – | EC50 ([2]; Huh-7 replicon cells, 72 h, single value, or second value of a pair x:y, read-out: Activity EC50 (μM) (EC50 luciferase readout)): 6 µM
6 | CC[C@H](N[C@H](C)CC(N)=O)c1ccc(Cl)c(Oc2ccccc2)c1F (single isomer, unassigned) [Example 83] | 6.7 µM | 17 µM | –
7 | CC[C@@H](N[C@@H](C)c1ccc[nH]c1=O)c1ccc(Cl)c(Oc2ccccc2)c1F (single isomer, unassigned) [Example 315] | 3.5 µM | > 10 µM | –
8 | CC(C)C(N)c1ccc(F)c(Oc2ccccc2)c1F (stereo not shown) [Example 1, 1-(2,4-Difluoro-3-phenoxy-phenyl)-2-methyl-propylamine. hydrochloride] | 2.5 µM | 15 µM | –
9 | CC(C)CC(N)c1ccc(F)c(Oc2ccccc2)c1F (stereo not shown) [Example 2] | 2.2 µM | 2.4 µM | –
10 | CCC(N)c1ccc(F)c(Oc2ccccc2)c1F (stereo not shown) [Example 3, 1-(2,4-Difluoro-3-phenoxy-phenyl)-propylamine. hydrochloride] | 2.1 µM | 22 µM | –
11 | CC(N)c1ccc(F)c(Oc2ccccc2)c1F (stereo not shown) [Example 4] | 7 µM | 13 µM | –
12 | CCC(N[C@H]1CC[C@H](N)CC1)c1ccc(F)c(Oc2ccccc2)c1F (stereo partly drawn) [Example 5, Trans-N-[1′-(2,4-difluoro-3-phenoxy-phenyl)-propyl]-cyclohexane-1,4-diamine] | 2 µM | 0.13 µM | –
13 | CCC(N[C@H]1CC[C@@H](N)CC1)c1ccc(F)c(Oc2ccccc2)c1F (stereo partly drawn) [Example 6, cis-N-[1-(2,4-Difluoro-3-phenoxy-phenyl)-propyl]-cyclohexane-1,4-diamine dihydrochloride] | – | 0.14 µM | IC50 [1, 5]: 10 to 150 µM
14 | CC[C@@H](Nc1ncc(CN)cn1)c1ccc(Cl)c(Oc2ccccc2)c1F [Example 8, (5-Aminomethyl-pyrimidin-2-yl)-[(R)-1-(4-chloro-2-fluoro-3-phenoxy-phenyl)-propyl]-amine hydrochloride] | 0.33 µM | 10 µM | –
15 | CC[C@@H](N[C@@H](C)C(=O)NCCN)c1ccc(Cl)c(Oc2ccccc2)c1F [Example 9, (S)—N-(2-Amino-ethyl)-2-[(R)-1-(4-chloro-2-fluoro-3-phenoxy-phenyl)-propylamino]-propionamide dihydrochloride] | – | 10 µM | inhibition at 0.01 µM ([1]; read-out: Activity % inhibition @ 0.01 μM): 40.5%
16 | CC[C@@H](N)c1ccc(F)c(Oc2ccccc2)c1F [Example 11] | 2.2 µM | 0.8 µM | –
17 | CCCC(N)c1ccc(F)c(Oc2ccccc2)c1F (stereo not shown) [Example 12] | 1.2 µM | 10 µM | –
18 | NC(C1=CCNCC1)c1ccc(F)c(Oc2ccccc2)c1F (stereo not shown) [Example 13, C-(2,4-Difluoro-3-phenoxy-phenyl)-C-(1,2,3,6-tetrahydro-pyridin-4-yl)-methylamine. dihydrochloride] | 3.1 µM | 2 µM | –
19 | NC(c1ccc(F)c(Oc2ccccc2)c1F)C1CCNCC1 (stereo not shown) [Example 14, C-(2,4-Difluoro-3-phenoxy-phenyl)-C-piperidin-4-yl-methylamine. dihydrochloride] | 1.7 µM | 2 µM | –
20 | CNC(CC(C)C)c1ccc(F)c(Oc2ccccc2)c1F (stereo not shown) [Example 16, [1-(2,4-Difluoro-3-phenoxy-phenyl)-3-methyl-butyl]-methyl-amine. hydrochloride] | 4 µM | 0.58 µM | –
21 | CCC(NC1CCCNC1)c1ccc(F)c(Oc2ccccc2)c1F (stereo not shown) [Example 17] | – | 2.8 µM | IC50 [1, 5]: 10 to 150 µM

Row | SMILES | IC50 [1, 3] | EC50 [2, 4] | also measured
22 | CC(C)NCC(N)c1ccc(F)c(Oc2ccccc2)c1F (stereo not shown) [Example 19, 1-(2,4-Difluoro-3-phenoxy-phenyl)-N*2*-isopropyl-ethane-1,2-diamine. dihydrochloride] | 9.8 µM | 10 µM | –
23 | CCC(NCc1cc[nH]n1)c1ccc(F)c(Oc2ccccc2)c1F (stereo not shown) [Example 21] | – | > 30 µM | IC50 [1, 5]: 10 to 150 µM
24 | CCC(NCC1CC1)c1ccc(F)c(Oc2ccccc2)c1F (stereo not shown) [Example 22] | 3.2 µM | 6.6 µM | –
25 | CCC(NCc1[nH]cnc1C)c1ccc(F)c(Oc2ccccc2)c1F (stereo not shown) [Example 24] | – | 18 µM | IC50 [1, 5]: 10 to 150 µM
26 | CCC(NCCC1CCCNC1)c1ccc(F)c(Oc2ccccc2)c1F (stereo not shown) [Example 27] | 1 µM | 0.26 µM | –
27 | CCC(NCC1CCNCC1)c1ccc(F)c(Oc2ccccc2)c1F (stereo not shown) [Example 29] | 4.4 µM | 0.47 µM | –
28 | CCC(NC(C)CO)c1ccc(F)c(Oc2ccccc2)c1F (stereo not shown) [Example 32] | 0.88 µM | 8 µM | –
29 | CC[C@@H](N[C@@H](C)CC(N)=O)c1ccc(Cl)c(Oc2cnc(N)cn2)c1F.Cl [Example 429] | – | 3 µM | –
30 | CC[C@@H](N[C@@H](C)CC(N)=O)c1ccc(Cl)c(Oc2ncccn2)c1F.Cl [Example 431] | – | > 3 µM | –
31 | CC[C@@H](N[C@@H](C)CC(N)=O)c1ccc(Cl)c(Oc2ncc(N)cn2)c1F.Cl [Example 433] | – | 1.6 µM | –
32 | CC[C@@H](N[C@@H](C)CC(N)=O)c1ccc(Cl)c(Oc2nc3ccccc3s2)c1F.Cl [Example 435] | – | 3 µM | –
33 | CC[C@@H](N[C@@H](C)CC(N)=O)c1ccc(Cl)c(Oc2nc3cnccc3s2)c1F.Cl [Example 438] | – | > 3 µM | –
34 | CC[C@@H](N[C@@H](C)CC(N)=O)c1ccc(Cl)c(Oc2ccc(C(N)=O)cc2)c1F.Cl [Example 444] | – | – | EC50 [2, 6]: 0.82 µM
35 | C[C@@H](CC(N)=O)N[C@@H](c1ccc(Cl)c(Oc2ccc(N)nc2)c1F)C1CC1.Cl [Example 454] | – | – | EC50 [2, 6]: 0.16 µM
36 | C[C@@H](CC(N)=O)N[C@@H](c1ccc(Cl)c(Oc2ccc(C(N)=O)nc2)c1F)C1CC1.Cl [Example 456] | – | > 3 µM | –
37 | CC[C@@H](N[C@@H](C)CC(N)=O)c1ccc(Cl)c(Oc2ccc(NC(C)=O)nc2)c1Cl [Example 458] | – | 3.5 µM | –
38 | C[C@@H](CC(N)=O)N[C@@H](c1ccc(Cl)c(Oc2ccccc2)c1F)C1CC1 [Example 459] | – | 0.63 µM | –
39 | CC[C@@H](NC(C)(C)CC(N)=O)c1ccc(Cl)c(Oc2ccc(N)nc2)c1F [Example 460, 3-{[(1R)-1-{3-[(6-aminopyridin-3-yl)oxy]-4-chloro-2-fluorophenyl}propyl]amino}-3-methylbutanamide hydrochloride (1:1)] | – | 0.13 µM | –
40 | CC[C@@H](N[C@@H](C)CC(N)=O)c1ccc(Cl)c(Oc2ccccc2)c1C [Example 468] | – | > 3 µM | –
41 | [2H]C([2H])([2H])C([2H])([2H])[C@@H](N[C@@H](C)CC(N)=O)c1ccc(Cl)c(Oc2ccccc2)c1F [Example 472] | – | > 3 µM | –
42 | CC(C)(C)C#Cc1cc(N(C(=O)[C@H]2CC[C@H](C)CC2)[C@H]2CC[C@H](O)CC2)c(C(=O)O)s1 [VX-222, Lomibuvir, reference compound] | – | – | EC50 ([2]; Hepatitis C virus, Huh-7, replicon assay, set in line with previous observations, read-out: pre-determined EC50 set for the combination experiments): 0.003 µM
